Results reported in patent US20180343865A1, “HERBICIDAL COMPOSITIONS COMPRISING ISOXAZOLO[5,4-B]PYRIDINES” (BASF SE, priority 2015, published 2018).

Columns and labels:
Assay type in all cases: in vivo
Sorghum bicolor = experiment: Greenhouse postemergence herbicidal activity on SORVU, 20 DAT
Description: (§1) For the post emergence treatment, the plants were first grown to the 2 leaf station (GS 12) and applied at GS 12-19 depending on the species. The herbicidal compositions were suspended or emulsified in water as distribution medium and sprayed using finely distributing nozzles.
(§2) The plants have been cultivated due to their individual requirements at 10 to 25° C. and. 20 to 35° C. The plants were irrigated due to their necessity.
(§3) The respective stated components A), were formulated as a 5% by weight strength emulsion concentrate containing wettol EM 31 20% and Cyclohexanone 80%. The respective stated components B), were formulated as either emulsifiable concentrates (EC), soluble liquids (SL), suspension concentrates (SC) or soluble granules (SG) as indicated in the table below. Component A, component B and the solvent system are introduced into the spray liquor used for applying the active compound. In the examples, the solvent used was water containing 1% Dash (Agnique ME 181 37.5%, Lutensit A-EP 22.5%, and Oleic Acid 5%) and 2% ammonium suflate.
(§4) In the following experiments, the herbicidal activity for the individual herbicide compounds (solo and mixture applications), the herbicidal succession was assessed 20 days after treatment (DAT). The evaluation for the damage on undesired weeds caused by the chemical compositions was carried out using a scale from 0 to 100%, compared to the untreated control plants. Here, 0 means no damage and 100 means complete destruction of the plants. The plants used in the greenhouse experiments belonged to the following species:
(§5) The value E, which corresponds to the effect (in %) that is to be expected if the activity of the individual compounds is additive, was calculated using the method of S. R. Colby (1967) “Calculating synergistic and antagonistic responses of herbicide combinations”, Weeds 15, p. 22 ff. Colby calculation for 2 way mixtures:
(§6) where: • X=effect in percent using herbicide A at an application rate a; • Y=effect in percent using herbicide B at an application rate b; • E=expected effect (in %) of A+B at application rates a+b
(§7) If the value observed in this manner is higher than the value E calculated according to Colby, a synergistic effect is present.

Conyza canadiensis = experiment: Greenhouse postemergence herbicidal activity on ERICA, 20 DAT
Description: as §1, §2, §3, §4, §5, §6, §7

Ipomoea hederacea = experiment: Greenhouse postemergence herbicidal activity on IPOHE, 20 DAT; conditions: for % activity, solo MCPA: 20 DAT
Description: as §1, §2, §3, §4, §5, §6, §7

Polygonum persicaria = experiment: Greenhouse postemergence herbicidal activity on POLPE, 20 DAT; conditions: for % activity, solo MCPA: postemergence, 20 DAT
Description: as §1, §2, §3, §4, §5, §6, §7

Matricaria chamomilla = experiment: Greenhouse postemergence herbicidal activity on MATCH, 20 DAT; conditions: for % activity, solo MCPA: 20 DAT
Description: as §1, §2, §3, §4, §5, §6, §7

Abutilon theoprasti = experiment: Greenhouse postemergence herbicidal activity on ABUTH, 20 DAT; conditions: for % activity, solo MCPA: 20 DAT
Description: as §1, §2, §3, §4, §5, §6, §7

Ambrosia elatior = experiment: Greenhouse postemergence herbicidal activity on AMBEL, 20 DAT; conditions: for % activity, solo MCPA: AMBEL, postemergence, 20 DAT
Description: as §1, §2, §3, §4, §5, §6, §7

Polygonum aviculare = experiment: Greenhouse postemergence herbicidal activity on POLAV, 20 DAT
Description: as §1, §2, §3, §4, §5, §6, §7

Chenopodium album = experiment: Greenhouse postemergence herbicidal activity on CHEAL, 20 DAT
Description: as §1, §2, §3, §4, §5, §6, §7

Polygonum convolvulus = experiment: Greenhouse postemergence herbicidal activity on POLCO, 20 DAT; conditions: for % activity, solo MCPA: 20 DAT
Description: as §1, §2, §3, §4, §5, §6, §7

Stellaria media = experiment: Greenhouse postemergence herbicidal activity on STEME, 20 DAT; conditions: for % activity, solo MCPA: 20 DAT
Description: as §1, §2, §3, §4, §5, §6, §7

Amaranthus retroflexus = experiment: Greenhouse postemergence herbicidal activity on AMARE, 20 DAT; conditions: for % activity, solo MCPA: 20 DAT
Description: as §1, §2, §3, §4, §5, §6, §7

AVEFA = experiment: Greenhouse postemergence herbicidal activity on AVEFA, 20 DAT; conditions: Avena fatua, post-emergence, 62.5 gai/ha, read-out: % activity, solo application dicuran
Galium aparine = experiment: Greenhouse postemergence herbicidal activity on GALAP, 20 DAT; conditions: Galium aparine, post-emergence, 62.5 gai/ha, read-out: % activity, solo application dicuran
Description: as §1, §2, §3, §4, §5, §6, §7

CONAR = experiment: Greenhouse postemergence herbicidal activity on CONAR, 20 DAT; conditions: post-emergence, 62.5 gai/ha, read-out: % activity, solo application dicuran
BROST = experiment: Greenhouse postemergence herbicidal activity on BROST, 20 DAT; conditions: post-emergence, 62.5 gai/ha, read-out: % activity, solo application dicuran
APESV = experiment: Greenhouse postemergence herbicidal activity on APESV, 20 DAT; conditions: post-emergence, 62.5 gai/ha, read-out: % activity, solo application dicuran
ALOMY = experiment: Greenhouse postemergence herbicidal activity on ALOMY, 20 DAT; conditions: Alopecurus myosuroides, post-emergence, 62.5 gai/ha, read-out: % activity, solo application dicuran
DIGSA = experiment: Greenhouse postemergence herbicidal activity on DIGSA, 20 DAT; conditions: Digitaria sanguinalis, post-emergence, 62.5 gai/ha, read-out: % activity, solo application dicuran
Setaria viridis = experiment: Greenhouse postemergence herbicidal activity on SETVI, 20 DAT; conditions: post-emergence, 62.5 gai/ha, read-out: % activity, solo application dicuran
Description: as §1, §2
The respective stated components A), were formulated as a 5% by weight strength emulsion concentrate containing wettol EM 31 20% and Cyclohexanone 80%. The respective stated components B), were formulated as either emulsifiable concentrates (EC), soluble liquids (SL), suspension concentrates (SC) or soluble granules (SG) as indicated in the table below. […]
In the following experiments, the herbicidal activity for the individual herbicide compounds (solo and mixture applications), the herbicidal succession was assessed 20 days after treatment (DAT). […]
The value E, which corresponds to the effect (in %) that is to be expected if the activity of the individual compounds is additive, was calculated using the method of S. R. Colby (1967) “Calculating synergistic and antagonistic responses of herbicide combinations”, Weeds 15, p. […]
as §7

[1] = Sorghum bicolor, post-emergence, 480 h, read-out: % activity, solo metsulfuron
[2] = Persicaria maculosa, post-emergence, 480 h, read-out: % activity, solo metsulfuron
[3] = Ambrosia artemisiifolia, post-emergence, 480 h, read-out: % activity, solo metsulfuron
[4] = Fallopia convolvulus, post-emergence, 480 h, read-out: % activity, solo metsulfuron

Cc1cc(Cl)ccc1OCC(=O)O [MCPA]
% activity, solo MCPA (Sorghum bicolor; SORVU, 200 gai/ha, postemergence, 20 DAT): 30% | % activity, solo MCPA (Conyza canadiensis; ERICA, 50 gai/ha, postemergence, 20 DAT): 60% | % activity, solo MCPA (Ipomoea hederacea; 50 gai/ha): 98% | % activity, solo MCPA (Ipomoea hederacea; 100 gai/ha): 98% | % activity, solo MCPA (Ipomoea hederacea; 200 gai/ha): 98% | % activity, solo MCPA (Polygonum persicaria; POLPE, 50 gai/ha): 20% | % activity, solo MCPA (Polygonum persicaria; POLPE, 200 gai/ha): 60% | % activity, solo MCPA (Polygonum persicaria; POPLE, 100 gai/ha): 35% | % activity, solo MCPA (Matricaria chamomilla; 50 gai/ha): 20% | % activity, solo MCPA (Matricaria chamomilla; 100 gai/ha): 30% | % activity, solo MCPA (Abutilon theoprasti; 50 gai/ha): 60% | % activity, solo MCPA (Abutilon theoprasti; 200 gai/ha): 75% | % activity, solo MCPA (Ambrosia elatior; 50 gai/ha): 65% | % activity, solo MCPA (Ambrosia elatior; 100 gai/ha): 65% | % activity, solo MCPA (Polygonum aviculare; 50 gai/ha): 10% | % activity, solo MCPA (Polygonum aviculare; 100 gai/ha): 70% | % activity, solo MCPA (Polygonum aviculare; 200 gai/ha): 98% | % activity, solo MCPA (Chenopodium album; 200 gai/ha, 20 DAT): 90% | % activity, solo MCPA (Polygonum convolvulus; POLCO, 50 gai/ha, postemergence): 0% | % activity, solo MCPA (Polygonum convolvulus; POLCO, 100 gai/ha, postemergence): 0% | % activity, solo MCPA (Polygonum convolvulus; POLCO, 200 gai/ha, postemergence): 0% | % activity, solo MCPA (Stellaria media; STEME, 50 gai/ha, postemergence): 0% | % activity, solo MCPA (Stellaria media; STEME, 100 gai/ha, postemergence): 0% | % activity, solo MCPA (Stellaria media; STEME, 200 gai/ha, postemergence): 20% | % activity, solo MCPA (Amaranthus retroflexus; AMARE, 50 gai/ha, postemergence): 55% | % activity, solo MCPA (Amaranthus retroflexus; AMARE, 100 gai/ha, postemergence): 65% | % activity, solo MCPA (Amaranthus retroflexus; AMARE, 200 gai/ha, postemergence): 90%

Cc1ccc(NC(=O)N(C)C)cc1Cl [dicuran, Chlorotoluron]
inhibition at 62.5 g/ha (Conyza canadiensis; Conyza, post-emergence, ERICA, 62.5 gai/ha, postemergence, read-out: % activity, solo application dicuran): 75% | inhibition at 62.5 g/ha (AVEFA): 0% | inhibition at 62.5 g/ha (Galium aparine): 35% | inhibition at 62.5 g/ha (CONAR): 0% | inhibition at 62.5 g/ha (BROST): 0% | inhibition at 62.5 g/ha (Ipomoea hederacea; Ipomoea hederacea, post-emergence, 62.5 gai/ha, read-out: % activity, solo application dicuran): 85% | inhibition at 62.5 g/ha (APESV): 0% | inhibition at 62.5 g/ha (ALOMY): 0% | inhibition at 62.5 g/ha (DIGSA): 0% | inhibition at 62.5 g/ha (Matricaria chamomilla; Matricaria chamomilla, post-emergence, 62.5 gai/ha, read-out: % activity, solo application dicuran): 85% | inhibition at 62.5 g/ha (Abutilon theoprasti; Abutilon, post-emergence, 62.5 gai/ha, read-out: % activity, solo application dicuran): 50% | inhibition at 62.5 g/ha (Setaria viridis): 0% | inhibition at 62.5 g/ha (Chenopodium album; Chenopodium album, post-emergence, 62.5 gai/ha, read-out: % activity, solo application dicuran): 90% | inhibition at 62.5 g/ha (Polygonum convolvulus; Fallopia convolvulus, post-emergence, POLCO, 62.5 gai/ha, postemergence, read-out: % activity, solo application dicuran): 80% | inhibition at 62.5 g/ha (Stellaria media; Stellaria media, post-emergence, STEME, 62.5 gai/ha, postemergence, read-out: % activity, solo application dicuran): 85% | inhibition at 62.5 g/ha (Amaranthus retroflexus; Amaranthus retroflexus, post-emergence, AMARE, 62.5 gai/ha, postemergence, read-out: % activity, solo application dicuran): 60%

COc1nc(C)nc(=NC(=O)NS(=O)(=O)c2ccccc2C(=O)O)[nH]1 [metsulfuron, Metsulfuron]
inhibition at 0.5 g/ha (Sorghum bicolor; [1]): 20% | inhibition at 1 g/ha (Sorghum bicolor; [1]): 35% | inhibition at 0.5 g/ha (Conyza canadiensis; Conyza, post-emergence, 480 h, read-out: % activity, solo metsulfuron): 90% | inhibition at 0.5 g/ha (Polygonum persicaria; [2]): 95% | inhibition at 1 g/ha (Polygonum persicaria; [2]): 95% | inhibition at 0.25 g/ha (Ambrosia elatior; [3]): 0% | inhibition at 0.5 g/ha (Ambrosia elatior; [3]): 5% | inhibition at 1 g/ha (Ambrosia elatior; [3]): 98% | inhibition at 0.5 g/ha (Polygonum convolvulus; [4]): 70% | inhibition at 1 g/ha (Polygonum convolvulus; [4]): 95% | inhibition at 0.25 g/ha (Stellaria media; Stellaria media, post-emergence, 480 h, read-out: % activity, solo metsulfuron): 98% | inhibition at 1 g/ha (Amaranthus retroflexus; Amaranthus retroflexus, post-emergence, 480 h, read-out: % activity, solo metsulfuron): 95%
